# Measured values reported in the supplement of paper PMC11451515.
# Test system: NOMO1
# Assay: cell viability relative to DMSO control; higher = less cytotoxic
# Details: 48 h
# Method in brief: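 NOMO1 or SEM cells were plated at 500 cells/well and P12-Ichikawa cells at 1000 cells/well in 1536-well plates (5 μl), after each leukemia line had been adapted for at least four passages in each medium. Pin dosing delivered library compounds in DMSO at 11 threefold concentrations, 47 μM to 0.79 nM. CellTiter-Glo One luminescence was read after 48 h at 37°C. Viability is reported as a per-plate percentage of DMSO wells, with cell-free wells as background.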
# [1] = HPLM + 10% dialyzed FBS, 0.000781 µM
# [2] = HPLM + 10% dialyzed FBS, 0.00234 µM
# [3] = HPLM + 10% dialyzed FBS, 0.00702 µM
# [4] = HPLM + 10% dialyzed FBS, 0.0211 µM
# [5] = HPLM + 10% dialyzed FBS, 0.0632 µM
# [6] = HPLM + 10% dialyzed FBS, 0.19 µM
# [7] = HPLM + 10% dialyzed FBS, 0.569 µM
# [8] = HPLM + 10% dialyzed FBS, 1.71 µM
# [9] = HPLM + 10% dialyzed FBS, 5.12 µM
# [10] = HPLM + 10% dialyzed FBS, 15.4 µM
# [11] = HPLM + 10% dialyzed FBS, 46.1 µM
# [12] = RPMI 5 mM glucose + 10% FBS, 0.000781 µM
# [13] = RPMI 5 mM glucose + 10% FBS, 0.00234 µM
# [14] = RPMI 5 mM glucose + 10% FBS, 0.00702 µM
# [15] = RPMI 5 mM glucose + 10% FBS, 0.0211 µM
# [16] = RPMI 5 mM glucose + 10% FBS, 0.0632 µM
# [17] = RPMI 5 mM glucose + 10% FBS, 0.19 µM
# [18] = RPMI 5 mM glucose + 10% FBS, 0.569 µM
# [19] = RPMI 5 mM glucose + 10% FBS, 1.71 µM
# [20] = RPMI 5 mM glucose + 10% FBS, 5.12 µM
# [21] = RPMI 5 mM glucose + 10% FBS, 15.4 µM
# [22] = RPMI 5 mM glucose + 10% FBS, 46.1 µM
# [23] = RPMI 5 mM glucose + 10% dialyzed FBS, 0.000781 µM
# [24] = RPMI 5 mM glucose + 10% dialyzed FBS, 0.00234 µM
# [25] = RPMI 5 mM glucose + 10% dialyzed FBS, 0.00702 µM
# [26] = RPMI 5 mM glucose + 10% dialyzed FBS, 0.0211 µM
# [27] = RPMI 5 mM glucose + 10% dialyzed FBS, 0.0632 µM
# [28] = RPMI 5 mM glucose + 10% dialyzed FBS, 0.19 µM
# [29] = RPMI 5 mM glucose + 10% dialyzed FBS, 0.569 µM
# [30] = RPMI 5 mM glucose + 10% dialyzed FBS, 1.71 µM
# [31] = RPMI 5 mM glucose + 10% dialyzed FBS, 5.12 µM
# [32] = RPMI 5 mM glucose + 10% dialyzed FBS, 15.4 µM
# [33] = RPMI 5 mM glucose + 10% dialyzed FBS, 46.1 µM
SMILES,cell viability [1],cell viability [2],cell viability [3],cell viability [4],cell viability [5],cell viability [6],cell viability [7],cell viability [8],cell viability [9],cell viability [10],cell viability [11],cell viability [12],cell viability [13],cell viability [14],cell viability [15],cell viability [16],cell viability [17],cell viability [18],cell viability [19],cell viability [20],cell viability [21],cell viability [22],cell viability [23],cell viability [24],cell viability [25],cell viability [26],cell viability [27],cell viability [28],cell viability [29],cell viability [30],cell viability [31],cell viability [32],cell viability [33]
CC1(C)CNc2cc(NC(=O)c3cccnc3NCc3ccncc3)ccc21,131%,118%,112%,137%,108%,105%,112%,113%,109%,94.6%,91.8%,115%,119%,134%,124%,120%,118%,124%,120%,103%,120%,118%,116%,110%,120%,112%,107%,96.3%,114%,115%,113%,105%,115%
C=CC(=O)Nc1cccc(Nc2nc(NC3CCC(N(C)C)CC3)nc3c2ncn3C(C)C)c1 (stereo not drawn),96.7%,120%,114%,94.7%,111%,109%,125%,73.8%,7.49%,5.11%,4.77%,127%,111%,115%,100%,103%,104%,99.6%,98.2%,11.9%,5.39%,3.68%,103%,98.2%,103%,103%,106%,105%,105%,72.9%,7.93%,5.45%,4.26%
CC[C@]12\C=C/CN3CC[C@]4([C@@H](N(C)C5=CC(=C(C=C45)[C@]6(C[C@H]7C[C@H](CN(C7)CC8=C6[NH]C9=C8C=CC=C9)C(C)(F)F)C(=O)OC)OC)[C@](O)([C@@H]1OC(C)=O)C(=O)OC)[C@H]23,102%,102%,97.5%,72.8%,28.2%,28.1%,36%,38.6%,36.8%,36.1%,28.7%,95%,96.9%,91.9%,85.2%,24.5%,18.5%,21.6%,22.3%,22.3%,23.7%,20.1%,91.5%,92.4%,91.6%,93.7%,57.5%,30.6%,24.2%,26.3%,27.5%,26.8%,20.8%
CC(C)c1cc(C(=O)N2Cc3ccc(CN4CCN(C)CC4)cc3C2)c(O)cc1O,125%,118%,109%,108%,126%,128%,70.8%,24%,20.3%,19.5%,19.9%,97.1%,107%,105%,110%,105%,117%,62.2%,21.3%,15.9%,17.5%,14.8%,119%,120%,111%,117%,119%,127%,71.7%,33.9%,20.5%,20.1%,17.6%
OC(=O)C(CC/1=C/C(=O)NC2=CC=CC=C12)NC(=O)C3=CC=C(Cl)C=C3 (stereo not drawn),95.6%,117%,136%,121%,130%,121%,131%,122%,131%,136%,110%,121%,122%,121%,134%,132%,127%,140%,155%,137%,135%,134%,114%,125%,147%,127%,139%,137%,136%,135%,134%,132%,143%
Cc1ccc([S+](=O)([O-])Nc2nc3ccccc3nc2Nc2ccc3nsnc3c2)cc1,97.3%,106%,114%,104%,116%,110%,111%,72.5%,21.3%,18%,13.1%,89.2%,94.4%,89.2%,108%,101%,119%,96.7%,78.5%,14%,11.5%,7.49%,84.8%,88.7%,106%,91.8%,111%,99.2%,92.8%,96.1%,20.7%,15.9%,12.7%
CO/C1=C/C(C)=C\[C@@H](C)[C@@H](O)[C@@H](C)C/C(C)=C\C=C/[C@H](OC)[C@@H]([C@@H](C)[C@@H](O)[C@H](C)[C@@]2(O)C[C@@H](O)[C@H](C)[C@@H](C(C)C)O2)OC1=O,79.5%,97.1%,91.8%,90.6%,58.8%,12.1%,12.7%,11.1%,12.6%,10.5%,9.72%,105%,95.9%,107%,82.3%,88.7%,12.5%,9.12%,7.87%,9.62%,8.77%,7.13%,99.8%,103%,104%,83%,73.7%,8.37%,8.28%,8.09%,7.93%,6.37%,6.62%
COc1ccc([C@@H]2CC(=O)c3c(O)cc(O[C@@H]4O[C@H](CO[C@@H]5O[C@@H](C)[C@H](O)[C@@H](O)[C@H]5O)[C@@H](O)[C@H](O)[C@H]4O)cc3O2)cc1O,106%,104%,121%,111%,115%,97.7%,112%,123%,117%,109%,117%,102%,100%,121%,117%,105%,105%,110%,102%,108%,124%,120%,94.3%,101%,115%,122%,124%,107%,123%,116%,114%,114%,104%
C=CCc1cccc(/C=N/NC(=O)CN2CCN(Cc3ccccc3)CC2)c1O,,,,,,,,,,,,120%,115%,108%,119%,116%,109%,114%,100%,115%,96.5%,8.9%,,,,,,,,,,,
O=C(Cc1ccc(-c2ccc(OCCN3CCOCC3)cc2)cn1)NCc1ccccc1,118%,102%,123%,111%,43.7%,41.9%,43.8%,53.7%,52.5%,56.6%,40.6%,124%,122%,117%,128%,71.9%,27.1%,33.2%,34.1%,32.5%,31.3%,33.7%,118%,108%,124%,112%,62.5%,35.8%,35.2%,41.7%,40.6%,33.4%,42.7%
CC1=C(CC(=O)O)c2cc(F)ccc2/C1=C\c1ccc([S+](C)[O-])cc1 (stereo not drawn),121%,122%,106%,123%,125%,107%,140%,99.6%,103%,101%,113%,125%,118%,105%,132%,115%,110%,112%,113%,114%,110%,112%,128%,119%,119%,123%,139%,139%,119%,109%,104%,107%,99.6%
Cc1cnc(C(=O)O)c[n+]1[O-],,,,,,,,,,,,109%,122%,110%,127%,129%,115%,101%,118%,105%,103%,112%,,,,,,,,,,,
CC(O)(C#Cc1ccc2c(c1)N(c1nc(N)ncc1Cl)CC2)c1nccs1 (stereo not drawn),98.7%,119%,132%,104%,130%,131%,130%,134%,152%,136%,87.5%,,,,,,,,,,,,124%,113%,136%,131%,135%,135%,135%,127%,138%,147%,110%
Cn1cc(/C=C2\C(=O)Nc3cccnc32)c2ccccc21,118%,138%,122%,138%,157%,138%,138%,146%,126%,123%,98.8%,113%,119%,130%,129%,143%,123%,124%,142%,125%,77.1%,89.3%,117%,118%,117%,132%,130%,140%,141%,147%,128%,78.2%,84.3%
ClC1=CC\2=C(NC(=O)\C(=C2N[C@@H]3CN4CCC3CC4)C5=NC6=C([NH]5)C=CC=C6)C=C1,121%,123%,121%,123%,129%,49.3%,36.5%,35.6%,32.3%,28.4%,17.3%,113%,120%,123%,110%,103%,46.4%,23.4%,17.5%,18%,12.4%,13.4%,101%,105%,113%,108%,117%,44%,23.7%,20.4%,25.2%,18.6%,18.2%
CNC[C@H](O)c1cccc(O)c1,92.9%,92.1%,98.8%,36.8%,111%,103%,109%,110%,99%,113%,122%,78.1%,86.8%,94.7%,26.9%,93%,89.4%,90.6%,92.8%,88.6%,102%,99%,78.3%,88.4%,98.3%,32.9%,98%,102%,101%,87.7%,82.3%,91.1%,103%
